The values below come from patent US8293768B2, “Organic compounds” (Novartis AG, priority 2006, dated 2012).

Take `Cc1nc(N2CCN(c3ccccc3)C2=O)sc1C(=O)NCc1ccccc1` [Example 7, N-benzyl-4-methyl-2-(2-oxo-3-phenylimidazolidin-1-yl)thiazole-5-carboxamide]: the melting point was in the range of 234 to 236 °C.

`Cc1cc(N2CCN(CCc3ccccc3)C2=O)sc1C(=O)NCc1cccnc1` [Example 15.4, 3-methyl-5-(2-oxo-3-phenethylimidazolidin-1-yl)-N-(pyridin-3-ylmethyl)thiophene-2-carboxamide] came in with a melting point of 95 to 97 °C.

The molecule `Cc1nc(N2CCN(Cc3ccccc3)C2=N)sc1C(=O)NCc1ccc(F)cc1` [Example 27.4, 2-(3-benzyl-2-iminoimidazolidin-1-yl)-N-(4-fluorobenzyl)-4-methylthiazole-5-carboxamide] yielded a melting point of 142 to 144 °C.

Turning to `Cc1nc(N2CCNC2=O)sc1C(=O)NCc1ccccc1` [Example 22, N-benzyl-4-methyl-2-(2-oxoimidazolidin-1-yl)thiazole-5-carboxamide], the melting point was in the range of 226 to 228 °C.

With `Cc1nc(N2CCN(Cc3ccccc3)C2=O)sc1C(=O)NCc1cc(F)cc(F)c1` [Example 9.3, 2-(3-benzyl-2-oxoimidazolidin-1-yl)-N-(3,5-difluorobenzyl)-4-methylthiazole-5-carboxamide], the melting point was in the range of 208 to 209 °C.

In the case of `Cc1nc(N2CCN(Cc3ccc(OC(F)(F)F)cc3)C2=O)sc1C(=O)NC[C@H](O)c1ccccc1` [Example 9.29, (R)—N-(2-hydroxy-2-phenylethyl)-4-methyl-2-(2-oxo-3-(4-(trifluoromethoxy)benzyl)imidazolidin-1-yl)thiazole-5-carboxamide], the melting point is 149 to 151 °C.

The molecule `Cc1nc(-n2ccn(CCc3ccc(F)cc3)c2=O)sc1C(=O)NCc1cccnc1` [Example 17.1, 2-(3-(4-fluorophenethyl)-2-oxo-2,3-dihydro-1H-imidazol-1-yl)-4-methyl-N-(pyridin-3-ylmethyl)thiazole-5-carboxamide] showed a melting point of 160 to 162 °C.

On to `Cc1csc(N2CCN(Cc3ccc(C(=O)NCc4ccccc4)cc3)C2=O)n1` [Example 8.9, N-benzyl-4-((3-(4-methylthiazol-2-yl)-2-oxoimidazolidin-1-yl)methyl)benzamide], for which the melting point is 185 to 186 °C.

Take `Cc1nc(N2CCN(Cc3ccc(F)cc3)C2=O)sc1C(=O)NCc1ccncc1` [Example 32.23, 2-(3-(4-fluorobenzyl)-2-oxoimidazolidin-1-yl)-4-methyl-N-(pyridin-4-ylmethyl)thiazole-5-carboxamide]: the melting point is 146 to 149 °C.

In turn, `Cc1nc(N2CCN(Cc3ccc(OC(F)(F)F)cc3)C2=O)sc1C(=O)NCc1ccccc1` [Example 9.23, N-benzyl-4-methyl-2-(2-oxo-3-(4-(trifluoromethoxy)benzyl)imidazolidin-1-yl)thiazole-5-carboxamide] registered a melting point of 197 to 198 °C.

Regarding `Cc1csc(N2CCN(Cc3ccc(C(F)(F)F)cc3)C2=O)n1` [Example 5.14, 1-(4-methylthiazol-2-yl)-3-(4-(trifluoromethyl)benzyl)imidazolidin-2-one], the melting point is 102 to 103 °C.

For the molecule `CCCN1CCN(c2nc(C)c(C(=O)NCc3cccnc3)s2)C1=O` [Example 9.40, 4-methyl-2-(2-oxo-3-propylimidazolidin-1-yl)-N-(pyridin-3-ylmethyl)thiazole-5-carboxamide], the melting point lay in the range of 109 to 111 °C.

Take `Cc1nc(N2CCN(Cc3ccccc3)C2=O)sc1C(=O)NCc1cccc(F)c1` [Example 8.1, 2-(3-benzyl-2-oxoimidazolidin-1-yl)-N-(3-fluorobenzyl)-4-methylthiazole-5-carboxamide]: the melting point is 169 to 171 °C.

The molecule `Cc1nc(-n2cnn(CCOC(=O)NCc3ccc(F)cc3)c2=O)sc1C(=O)NCc1cccnc1` [Example 48, 2-(4-(4-methyl-5-(pyridin-3-ylmethylcarbamoyl)thiazol-2-yl)-5-oxo-4,5-dihydro-1H-1,2,4-triazol-1-yl)ethyl 4-fluorobenzylcarbamate] showed a melting point of 149 to 150 °C.

In the case of `Cc1nc(N2CCN(Cc3cccc(C(=O)O)c3)C2=O)sc1C(=O)NCc1ccccc1` [Example 25.3, 3-((3-(5-(benzylcarbamoyl)-4-methylthiazol-2-yl)-2-oxoimidazolidin-1-yl)methyl)benzoic acid], the melting point lay in the range of 143 to 145 °C.

Consider `Cc1nc(N2CCN(CC3CCCCC3)C2=O)sc1C(=O)NCc1cccnc1` [Example 9.35, 2-(3-(cyclohexylmethyl)-2-oxoimidazolidin-1-yl)-4-methyl-N-(pyridin-3-ylmethyl)thiazole-5-carboxamide], for which the melting point was in the range of 134 to 136 °C.

Take `Cc1cc(-n2cnn(Cc3ccccc3)c2=O)sc1C(=O)NCc1cccnc1` [Example 31.1, 5-(1-benzyl-5-oxo-1H-1,2,4-triazol-4(5H)-yl)-3-methyl-N-(pyridin-3-ylmethyl)thiophene-2-carboxamide]: the melting point was in the range of 180 to 181 °C.

For the molecule `Cc1cc(CN2CCN(c3nc(C)c(C(=O)NCc4cccnc4)s3)C2=O)no1` [Example 32.3, 4-methyl-2-(3-((5-methylisoxazol-3-yl)methyl)-2-oxoimidazolidin-1-yl)-N-(pyridin-3-ylmethyl)thiazole-5-carboxamide], the melting point was in the range of 185 to 188 °C.

With `Cc1cc(N2CCN(Cc3ccc(C(F)(F)F)cc3)C2=O)sc1C(=O)NCc1cccnc1` [Example 15, 3-methyl-5-(2-oxo-3-(4-(trifluoromethyl)benzyl)imidazolidin-1-yl)-N-(pyridin-3-ylmethyl)thiophene-2-carboxamide], the melting point lay in the range of 102 to 104 °C.

`Cc1nc(N2CCN(Cc3ccc(F)cc3)C2=O)sc1C(=O)NCc1ccccc1` [Example 9.21, N-benzyl-2-(3-(4-fluorobenzyl)-2-oxoimidazolidin-1-yl)-4-methylthiazole-5-carboxamide] returned a melting point of 192 to 193 °C.

In turn, `Cc1cc(-n2cnn(Cc3ccc(F)cc3)c2=O)sc1C(=O)NCc1cnn(C)c1` [Example 31.7, 5-(1-(4-fluorobenzyl)-5-oxo-1H-1,2,4-triazol-4(5H)-yl)-3-methyl-N-((1-methyl-1H-pyrazol-4-yl)methyl)thiophene-2-carboxamide] had a melting point of 168 to 170 °C.

In turn, `Cc1nc(N2CCN(C(=O)c3ccc(F)cc3)C2=O)sc1C(=O)NCc1ccccc1` [Example 34, N-benzyl-2-(3-(4-fluorobenzoyl)-2-oxoimidazolidin-1-yl)-4-methylthiazole-5-carboxamide] came in with a melting point of 130 to 132 °C.

`Cc1nc(CNC(=O)c2sc(-n3cnn(Cc4ccc(F)cc4)c3=O)cc2C)cs1` [Example 31.8, 5-(1-(4-fluorobenzyl)-5-oxo-1H-1,2,4-triazol-4(5H)-yl)-3-methyl-N-((2-methylthiazol-4-yl)methyl)thiophene-2-carboxamide] showed a melting point of 148 to 150 °C.

In turn, `Cc1nc(N2CCCN(Cc3ccc(F)cc3)C2=O)sc1C(=O)NCc1cccnc1` [Example 32.25, 2-(3-(4-fluorobenzyl)-2-oxotetrahydropyrimidin-1(2H)-yl)-4-methyl-N-(pyridin-3-ylmethyl)thiazole-5-carboxamide] came in with a melting point of 48 to 50 °C.

With `Cc1csc(N2CCN(Cc3ccc(C(=O)Nc4ccc(F)cc4)cc3)C2=O)n1` [Example 8.7, N-(4-fluorophenyl)-4-((3-(4-methylthiazol-2-yl)-2-oxoimidazolidin-1-yl)methyl)benzamide], the melting point fell in the range of 206 to 207 °C.
